Laboratory results from patent US20230331710A1, “HETEROCYCLIC COMPOUND, PREPARATION METHOD AND USE THEREOF” (SHANGHAI MEIYUE BIOTECH DEVELOPMENT CO. LTD, priority 2020, published 2023).

What follows are compounds tested against T1, complement factor B (Homo sapiens, UniProt P00751) (assay: Complement hemolytic activity assay (lysis of rabbit erythrocytes by normal human serum)). Conditions: normal human serum in GVB0 buffer with 10 mM Mg-EGTA, 37° C., A415.
T1 construct: from tissue; host or cells: normal human serum from healthy volunteers
Type: cell-based
Protocol: 4. Complement Hemolytic Activity Assay
The hemolysis experiment was carried out by referring to the description in Xuan Yuan et al., Haematologica. […] Prior to the experiment, the optimal concentration of normal human serum (NHS) required to achieve 100% lysis of rabbit erythrocytes (REs) was obtained by titration testing. […] A GVB0 buffer containing 10 mM Mg-EGTA and containing NHS and RE but no test compound was used as a positive control group (100% lysis). A GVB0 buffer containing 10 mM Mg-EGTA and containing inactivated NHS (heated at 56° C. for 30 min or at 65° C. for 5 min) and RE but no test compound was used as a negative control group (0% lysis). The samples were centrifuged at 2000 g for 5 min, and the supernatant was collected. Absorbance at 415 nm (A415) was measured using a microplate reader (Molecular Devices, SpectraMax i3X). IC50 values were calculated from percent hemolysis as a function of test compound concentration by non-linear regression.

T1 sequence (P00751 26-764): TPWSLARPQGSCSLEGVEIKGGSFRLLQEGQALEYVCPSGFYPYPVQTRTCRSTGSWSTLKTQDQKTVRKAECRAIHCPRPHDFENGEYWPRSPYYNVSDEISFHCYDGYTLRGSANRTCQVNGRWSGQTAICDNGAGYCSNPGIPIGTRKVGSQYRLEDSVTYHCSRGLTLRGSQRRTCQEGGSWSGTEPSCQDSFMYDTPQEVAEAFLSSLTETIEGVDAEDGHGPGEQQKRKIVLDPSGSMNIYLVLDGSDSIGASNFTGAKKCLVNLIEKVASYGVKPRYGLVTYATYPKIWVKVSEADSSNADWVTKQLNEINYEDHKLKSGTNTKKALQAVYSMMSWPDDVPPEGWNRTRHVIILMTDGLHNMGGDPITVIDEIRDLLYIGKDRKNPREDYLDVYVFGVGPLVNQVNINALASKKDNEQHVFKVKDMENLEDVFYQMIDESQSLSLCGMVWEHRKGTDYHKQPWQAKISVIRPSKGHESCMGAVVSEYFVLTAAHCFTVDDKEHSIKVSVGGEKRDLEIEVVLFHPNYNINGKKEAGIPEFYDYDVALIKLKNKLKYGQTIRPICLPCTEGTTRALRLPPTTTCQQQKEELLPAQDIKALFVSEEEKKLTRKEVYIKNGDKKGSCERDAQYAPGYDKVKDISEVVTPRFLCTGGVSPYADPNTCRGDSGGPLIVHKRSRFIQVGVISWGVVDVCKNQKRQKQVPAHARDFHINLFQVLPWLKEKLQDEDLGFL

Compared with `CCO[C@H]1CCN(Cc2c(OC)cc(C3CC3)c3[nH]ccc23)[C@H](c2ccc(C(=O)O)cc2)C1` [Example 13], `CCO[C@H]1CCN(Cc2c(OC)cc(C#N)c3[nH]ccc23)[C@H](c2ccc(C(=O)O)cc2)C1` [Example 12] is higher in IC50: 1 µM for the first, greater than 5 µM for the second. The first is the more potent here.

Going from `CCO[C@H]1CCN(Cc2c(OC)cc(C)c3occc23)[C@H](c2ccc(C(=O)O)cc2)C1` [Example 10] to `CCO[C@H]1CCN(Cc2c(OC)cc(C)c3ccccc23)[C@H](c2ccc(C(=O)O)cc2)C1` [Example 14], the IC50 rises from 1.3 µM to greater than 5 µM. The first is the more potent here.

Compared with `CCO[C@H]1CCN(Cc2c(OC)cc(C)c3c2CCN3)[C@H](c2ccc(C(=O)O)cc2)C1` [Example 1], `CCO[C@H]1CCN(Cc2c(OC)cc(C)c3c2CCC(=O)N3)[C@H](c2ccc(C(=O)O)cc2)C1` [Example 16] is higher in IC50: 1.5 µM for the first, greater than 5 µM for the second. The first is the more potent here.

Going from `CCO[C@H]1CCN(Cc2c(OC)cc(C(F)(F)F)c3[nH]ccc23)[C@H](c2ccc(C(=O)O)cc2)C1` [Example 11] to `CCO[C@H]1CCN(Cc2c(OC)cc(C)c3[nH]ncc23)[C@H](c2ccc(C(=O)O)cc2)C1` [Example 5], the IC50 falls from greater than 5 µM to 1.2 µM.

Compared with `CCO[C@H]1CCN(Cc2c(OC)cc(C)c3[nH]nnc23)[C@H](c2ccc(C(=O)O)cc2)C1` [Example 6], `CCO[C@H]1CCN(Cc2c(OC)cc(C)c3[nH]cnc23)[C@H](c2ccc(C(=O)O)cc2)C1` [Example 4] is lower in IC50: greater than 5 µM for the first, 0.9 µM for the second. The second is the more potent here.

`CCO[C@H]1CCN(Cc2c(C)cc(C)c3ccccc23)[C@H](c2ccc(C(=O)O)cc2)C1` [Example 15] and `CCO[C@H]1CCN(Cc2c(OC)cc(C)c3c2CCC3)[C@H](c2ccc(C(=O)O)cc2)C1` [Example 8] cannot be ordered by IC50: greater than 5 µM for the first, greater than 5 µM for the second.
